Experiments:
[1] = system: PZp53MED1 medulloblastoma cells; details: medulloblastoma-derived cells; cited from earlier work
[2] = system: tumor cell lines from esophagus, stomach, biliary tract, and pancreas; assay: cells
Description: Viable cell mass was determined by optical density measurements at 490 nm (O.D.490) at 2 and 4 days using the CellTiter96® colorimetric assay (Promega; Madison Wis.). Relative growth was calculated as {OD (day 4)-OD (day 2)}/OD (day 2).

[3] = system: HuCCT1 human cholangiocarcinoma xenograft; assay: HuCCT1 xenograft treatment in athymic (nude) mice; format: in vivo; details: 50 mg/kg/day, subcutaneous injection
[4] = system: Hh pathway activity; assay: Hh-responsive reporter assay in first passage pancreas carcinoma xenograft cells; format: cell-based, human; details: PTCH-expressing primary xenografts; 3.0 μM cyclopamine
Source text: (§1) Cells and tissues: Origins and sources of cells and tissues are described in the Table (below). First passage pancreatic cancer xenografts were derived from freshly harvested pancreaticoduodenectomy specimens as described^14. […] After reaching 25 mm in greatest dimension, xenograft tumors were harvested, minced, and plated into tissue culture vessels in RPMI, 20% Fetal Bovine Serum (FBS) for assays as described below. The diagnosis of frozen samples from gastric and pancreatic adenocarcinoma resections and adjacent normal stomach and pancreas was microscopically confirmed by two pathologists, and RNA was prepared as described^14.
(§2) Hh-responsive reporter assays: Hh-responsive firefly luciferase and control SV-40 Renilla luciferase reporter assays were performed on subconfluent triplicate cultures as described^22.

[5] = system: Hh pathway activity; assay: Hh-inducible reporter assay in HuCCT1 cholangiocarcinoma cells; format: cell-based, human; details: purified SHH ligand to 25 nM
Description: as §2

[6] = system: single passage pancreatic cancer xenograft cells; assay: Proliferation (MTS) assay in first passage pancreatic cancer xenograft cells; format: cell-based, human
Source text: as §1

[7] = system: PZp53MED1 medulloblastoma cells; assay: Proliferation assay in medulloblastoma cells; format: cell-based; details: medulloblastoma cells from a mouse model of Gorlin syndrome, loss of PTCH function

Row | Compound | cell killing [1] | significant growth inhibition, dependence on PTCH mRNA expression ([2]; 3.0 μM cyclopamine, MTS assay) | inhibition at 3 µM ([2]; Homo sapiens, read-out: growth inhibition) [%] | survival and adverse reactions ([3]; daily) | tumor regression (xenograft tumor volume) ([3]; within 14 days, tumors grown to 180 mm^3, n=9) | GLI reporter expression [4] | augmentation of reporter activity [5] | growth as a function of added SHH concentration ([6]; PX184 cells with 5E1 at a level just sufficient to block growth (0.1 μg/ml)) | growth ([6]; single passage pancreatic tumor xenograft that did not express PTCH mRNA (PX169)) | change in growth [7]
1 | CC1=C2C[C@H]3[C@@H](CC=C4C[C@@H](O)CC[C@@]43C)[C@@H]2CC[C@]12O[C@@H]1C[C@H](C)CN[C@H]1[C@H]2C [cyclopamine] | can be killed by cyclopamine treatment | only in tumor lines expressing PTCH mRNA | 75 to 95 | all mice survived cyclopamine treatment without obvious adverse reactions | Complete or near complete regression of all nine treated tumors | cyclopamine-sensitive |  |  |  | 
2 | SHH ligand: recombinant doubly lipid modified Sonic hedgehog (ShhNp) peptide |  |  |  |  |  |  | approximately 8 fold | Growth correlated positively with increasing concentrations | did not significantly affect growth | No significant ligand-induced or antibody-induced change in growth
